The values that follow come from patent US4127572A, “Method of using 2(1H)-quinazolinethiones” (The Dow Chemical Company, priority 1978, dated 1978).

The test system of one test is reserpine-induced ptosis. The experiment in a line: Protection against reserpine-induced ptosis in mice. The class given is in vivo. As to conditions: 60 mg/kg intraperitoneal, 30 minutes before 2.5 mg/kg reserpine subcutaneous, graded after 45 minutes. Here is the method: A similar group of mice serving as controls were injected only with the carrier. After 30 minutes, both groups of mice were injected subcutaneously with 2.5 mg/kg of reserpine. […] Animals injected with the benzotriazepine compound were graded after 45 minutes on the following basis: no ptosis = 0, partial ptosis = 1, complete ptosis = 2.

For test [1], the system named is serotonin uptake in synaptosome preparations. As to the kind of experiment: Uptake of serotonin in rat forebrain synaptosome preparations. The class given is biochemical, rats. As to conditions: 10 μg/ml, 37° C., rat forebrain synaptosomes, versus saline control; low values indicate activity. The procedure: (§1) Antidepressant activity may also be illustrated in vitro by measuring the uptake of the neurotransmittors norepinephrine and serotonin in synaptosome preparations prepared from the forebrains of rats. The synaptosome preparation is incubated at 37° C. with radioactive neurotransmittor and the test compound at a concentration of 10 μg/ml. The synaptosome are isolated and the uptake of labelled neurotransmittor measured by liquid scintillation spectrometry using standard techniques. Percent inhibiton of uptake is determined by comparing the radioactivity taken in the synaptosome preparation with that of a similarly incubated saline control. Low values indicate activity.

Test [2] has as its system norepinephrine uptake in synaptosome preparations. As to the kind of experiment: Uptake of norepinephrine in rat forebrain synaptosome preparations. The class given is biochemical, rats. As to conditions: 10 μg/ml, 37° C., rat forebrain synaptosomes, versus saline control; low values indicate activity. Here is the method:
as §1

The test system of test [3] is stress induced rise of serum corticosteroid levels. As to the kind of experiment: Block of stress induced rise of serum corticosteroid levels in rats. The class given is in vivo. As to conditions: 10 mg/kg intraperitoneal, stressed male rats; values less than 1.0 indicative of activity. Here is the method:
See British Medical Journal, 1971(2), p. 310-313. Corticosteroid levels were compared between stressed male rats pretreated with 10 mg/kg given by intraperitoneal injection to corticosteroid levels of stressed male rats pretreated with saline. The results were expressed as a ratio with values less than 1.0 indicative of activity. The compound 6-chloro-3,4-dihydro-4-hydroxy-3-(3-(4-morpholinyl)propyl)-4-phenyl-2(1H)- quinazolinethione (Example 12) gave a value of 0.12.

With “6-chloro-3-(3-dimethylamino)propyl-3,4-dihydro-4-hydroxy-4-phenyl-2(1H)-quinazolinethione [Example 7]”, in the test on reserpine-induced ptosis (controls 8), the “sum of ptosis grades for the four test mice (no ptosis = 0, partial = 1, complete = 2; out of a possible 8)” value was 4. Moreover, in the test with reserpine-induced ptosis (four mice), the “protection against reserpine-induced ptosis” value was found to be 50%. For `CCN(CC)CCN1C(=S)Nc2ccc(Cl)cc2C1(O)c1ccccc1` (centres unmarked) [Example 8], in test [1], the “inhibition of seratonin uptake” value was 7%. Moreover, the “norepinephrine uptake relative to saline control” value in test [2] is 3%. For the molecule `OC1(c2ccccc2)c2cc(Cl)ccc2NC(=S)N1CCCN1CCOCC1` (centres unmarked) [Example 12, 6-chloro-3,4-dihydro-4-hydroxy-3-(3-(4-morpholinyl)propyl)-4-phenyl-2(1H)-quinazolinethione], the “ratio of corticosteroid levels, stressed rats pretreated with compound to stressed rats pretreated with saline” value in test [3] turned out to be 0.12.
